Measurements: PubChem BioAssay (NCI)
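A five-concentration, 48-hour dose response in 96-well plates underlies each endpoint, interpolated linearly between surrounding concentrations. Abbreviation: GI50, concentration required for 50% inhibition of growth. TGI: concentration producing complete growth inhibition.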

Columns and labels:
Assay in all cases: NCI tumour cell line growth inhibition, 48 h
[1] = system: MALME-3M melanoma
[2] = system: SF-539 CNS
[3] = system: OVCAR-3 ovarian
[4] = system: HOP-92 NSCLC
[5] = system: SNB-75 CNS
[6] = system: MOLT-4 leukemia
[7] = system: K-562 leukemia
[8] = system: SNB-19 CNS
[9] = system: MDA-MB-231 breast
[10] = system: OVCAR-4 ovarian
[11] = system: UACC-62 melanoma
[12] = system: HCT-116 colon
[13] = system: T-47D breast
[14] = system: A549 NSCLC
[15] = system: DU-145 prostate
[16] = system: SN12C renal
[17] = system: U251 CNS
[18] = system: RPMI-8226 leukemia
[19] = system: NCI-H460 lung
[20] = system: HS 578T breast
[21] = system: HCC-2998 colon
[22] = system: TK-10 renal
[23] = system: CCRF-CEM leukemia
[24] = system: SF-295 CNS
[25] = system: SK-MEL-5 melanoma
[26] = system: UACC-257 melanoma
[27] = system: EKVX NSCLC
[28] = system: ACHN renal
[29] = system: NCI/ADR-RES ovarian
[30] = system: SW-620 colon
[31] = system: MDA-MB-435
[32] = system: SK-OV-3 ovarian
[33] = system: OVCAR-5 ovarian
[34] = system: LOX IMVI melanoma
[35] = system: COLO 205 colon
[36] = system: SF-268 CNS
[37] = system: MCF7 breast
[38] = system: NCI-H23 lung

In the case of Cc1ccc2c(c1)C(=O)C(c1c(-c3[nH]c(=O)c4ccc(C)cc4c3O)c(O)c3ccccc3c1O)=NC2=O, the GI50 [1] is reported as 1760 nM, the TGI [1] is reported as 3540 nM and the GI50 [2] is reported as 1670 nM. For the same molecule, the TGI [2] was 3310 nM, the GI50 [3] was 832 nM and the TGI [3] was 2400 nM. The GI50 [4] was 1660 nM, the TGI [4] was 5100 nM and the GI50 [5] was 1420 nM. For the same molecule, the TGI [5] was 2840 nM, the GI50 [6] was 527 nM and the TGI [6] was 3020 nM. The GI50 [7] was 378 nM, the TGI [7] was 3440 nM and the GI50 [8] was 2310 nM. The TGI [8] was 7300 nM, the GI50 [9] was 457 nM and the TGI [9] was 3860 nM. For the same molecule, the GI50 [10] was 1170 nM, the TGI [10] was 2430 nM and the GI50 [11] was 1760 nM. It also gave a TGI [11] of 3790 nM, a GI50 [12] of 423 nM and a TGI [12] of 1530 nM. It also gave a GI50 [13] of 1480 nM, a TGI [13] of 5260 nM and a GI50 [14] of 2100 nM. It also gave a TGI [14] of 4260 nM, a GI50 [15] of 1180 nM and a TGI [15] of 2900 nM. The GI50 [16] was 1800 nM, the TGI [16] was 3630 nM and the GI50 [17] was 1240 nM. For the same molecule, the TGI [17] was 2700 nM, the GI50 [18] was 2320 nM and the TGI [18] was 6680 nM. It also gave a GI50 [19] of 1780 nM, a TGI [19] of 3390 nM and a GI50 [20] of 2340 nM. For the same molecule, the TGI [20] was 6330 nM, the GI50 [21] was 2300 nM and the TGI [21] was 4970 nM. The GI50 [22] was 2910 nM, the TGI [22] was 5970 nM and the GI50 [23] was 830 nM. For the same molecule, the TGI [23] was 8030 nM, the GI50 [24] was 1670 nM and the TGI [24] was 3550 nM. It also gave a GI50 [25] of 1870 nM, a TGI [25] of 3810 nM and a GI50 [26] of 3040 nM. It also gave a TGI [26] of 7980 nM, a GI50 [27] of 1720 nM and a TGI [27] of 5660 nM. For the same molecule, the GI50 [28] was 1720 nM, the TGI [28] was 4360 nM and the GI50 [29] was 2110 nM. It also gave a TGI [29] of 7560 nM, a GI50 [30] of 1560 nM and a TGI [30] of 3440 nM. For the same molecule, the GI50 [31] was 1690 nM, the TGI [31] was 3290 nM and the GI50 [32] was 2150 nM. For the same molecule, the TGI [32] was 5360 nM, the GI50 [33] was 2870 nM and the TGI [33] was over 100000 nM. The GI50 [34] was 1280 nM, the TGI [34] was 2710 nM and the GI50 [35] was 2850 nM. The TGI [35] was 12800 nM, the GI50 [36] was 2240 nM and the TGI [36] was 5470 nM. The GI50 [37] was 1590 nM, the TGI [37] was 4580 nM and the GI50 [38] was 1630 nM. For the same molecule, the TGI [38] was 4040 nM.
